≈ marks a conversion by molar mass, not a printed value.
What was measured:
[1] = test system: Acinetobacter baumannii; assay: MIC micro broth dilution assay; type: cell-based; conditions: for stacked score activity, 100/MIC, A: A. baumannii; for MIC: Acinetobacter baumannii
In short: (§1)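 Multidrug-resistant clinical ESKAPE isolates were grown overnight (Gram-positives in TSB, Gram-negatives in LB), diluted 1:1,000 and exposed to decreasing compound concentrations in DMF (≤2.0% DMF).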

[2] = test system: Staphylococcus aureus (USA300 strain FPR3757); assay: Murine model of lethal peritonitis; type: in vivo, mice; conditions: 2× MIC, I.M., 1 h post-infection, six mice per group
Method: Using MRSA as a representative ESKAPE organism, we infected mice with 1×10^8 bacterial cells in 5% mucin via intraperitoneal injection. At 1 h post-infection, mice were then I.V. injected with either vancomycin (positive control), or I.M. with our front runner compounds.
Six mice per group were injected with 1×10^8 CFU ml^−1 of Staphylococcus aureus (USA300 strain FPR3757) in PBS containing 5% mucin. […] Mice were monitored twice daily for five days to assess mortality. The clinical endpoint of this study was when the mice reached a pre-moribund state. Characteristics of pre-moribund state include: hunched posture, rapid, shallow and/or labored breathing, ruffled fur, lethargy, failure to respond to stimuli, soiled anogenital area, paralysis, paresis, head tilt, circling, vocalizations, non-purposeful movements and/or were unable to eat or drink. Those mice reaching this state prior to the completion of the 5 day infection period were euthanized. The number of mice surviving between control and treatment groups was compared and analyzed for statistical significance using a log rank test.

[3] = test system: Staphylococcus aureus; assay: Minimal bactericidal concentration (MBC) assay; type: cell-based; conditions: Staphylococcus aureus, purified compound; read-out: MBC90
Method: (§2) Briefly, compound was washed by centrifugation and serial dilution, before plating on Tryptic Soy Agar (TSA). Plates were incubated for 24 hours at 37° C. and cell viability assessed by determining CFU/ml at each concentration, for every compound. Percent recovery was then determined compared to CFU/ml from no drug controls. All concentrations and controls were tested using three biological replicates, alongside two technical replicates for each data point.

[4] = test system: Enterococcus faecium; assay: Minimal bactericidal concentration (MBC) assay; type: cell-based; conditions: Enterococcus faecium, purified compound; read-out: MBC90
Method: as §2

[5] = test system: Pseudomonas aeruginosa; assay: Minimal bactericidal concentration (MBC) assay; type: cell-based; conditions: Pseudomonas aeruginosa; purified compound; read-out: MBC90
Method: as §2

[6] = test system: Klebsiella pneumoniae; assay: Minimal bactericidal concentration (MBC) assay; type: cell-based; conditions: Klebsiella pneumoniae, purified compound; read-out: MBC90
Method: as §2

[7] = test system: Enterobacter cloacae; assay: Minimal bactericidal concentration (MBC) assay; type: cell-based; conditions: Enterobacter cloacae; purified compound; read-out: MBC90
Method: as §2

[8] = test system: Acinetobacter baumannii; assay: Minimal bactericidal concentration (MBC) assay; type: cell-based; conditions: Acinetobacter baumannii, purified compound; read-out: MBC90
Method: as §2

[9] = test system: S. aureus; assay: Resistance serial passage assay; type: cell-based, Staphylococcus aureus; conditions: 8 passages, concentration doubled each day
Method: ESKAPE pathogens were grown overnight in liquid media at 37° C. These cultures were then diluted 1:100 in fresh media, and seeded into a 96-well plate. Lead bis-cyclic guanidines or control agents were added to respective wells at half MIC concentrations. Plates were then incubated for 24 hours at 37° C., with bacteria removed from these cultures on the following day, to inoculate fresh media (1:100 dilution) containing compounds at a 2-fold higher concentrations. These were then grown overnight, and the procedure repeated for a total of eight days. […] Each experiment was performed in triplicate, yielding identical results.

[10] = test system: Enterococcus faecium; assay: MIC micro broth dilution assay; type: cell-based; conditions: for stacked score activity, 100/MIC, E: E. faecium; for MIC: Enterococcus faecium
In short: as §1

[11] = test system: Pseudomonas aeruginosa; assay: MIC micro broth dilution assay; type: cell-based; conditions: for MIC: Pseudomonas aeruginosa; for concentration inhibiting 90% of isolates: panel of P. aeruginosa clinical isolates
Method: (§3) For this study we used a representative panel of multi-drug resistant clinical ESKAPE pathogen isolates (Supplemental Table S6).^42 43 3a, 44 45 Gram-positive organisms were grown in tryptic soy broth media (TSB), whilst Gram-negative organisms were grown in lysogeny Broth (LB), as described by us previously. ^43 MIC and MBC determination assays.
(§4) Broth cultures of ESKAPE strains were grown overnight before being diluted 1 in 1,000 in fresh media. Sterile 96-well plates were loaded with culture and compounds (in DMF) were added at decreasing concentrations to equal a total volume of 200 μl per well. Care was taken to not add more than 2.0% DMF to any well. Plates were then incubated at 37° C., and MICs determined after 24 hours by visual inspection for a lack of turbidity in wells. All assays were performed in triplicate with identical results obtained. For both the scaffold ranking and positional scanning samples, relative broad-spectrum activity was determined via stacked scores: […]

[12] = test system: ESKAPE pathogens; assay: MIC micro broth dilution assay, statements and stacked scores over all ESKAPE pathogens; type: cell-based; conditions: letters E,S,K,A,P,E = ESKAPE pathogens, — = none
Method: as §3
as §4, with “The minimum inhibitory concentration (MIC) for the combinatorial libraries, deconvolved 2157 library, and individual compounds were determined as follows. Broth” for “Broth”

## CCCCCCCN1C(=N)N(CCCC[C@H]2CNC(=N)N2CCc2cccc(C(F)(F)F)c2)C[C@@H]1CCCC [Compound 1]
[1]
  stacked score activity, 100/MIC, A: 20
[1]; A. baumannii isolate 1403
  MIC: 2 µM (≈ 1.1 µg/mL)
[1]; A. baumannii isolate 1643
  MIC: 2 µM (≈ 1.1 µg/mL)
[1]; A. baumannii isolate 1644
  MIC: 2 µM (≈ 1.1 µg/mL)
[1]; A. baumannii isolate 1647
  MIC: 2 µM (≈ 1.1 µg/mL)
[1]; A. baumannii isolate 1648
  MIC: 2 µM (≈ 1.1 µg/mL)
[1]; A. baumannii isolate 1649
  MIC: 2 µM (≈ 1.1 µg/mL)
[1]; A. baumannii isolate 1650
  MIC: 2 µM (≈ 1.1 µg/mL)
[1]; A. baumannii isolate 1651
  MIC: 2 µM (≈ 1.1 µg/mL)
[1]; A. baumannii isolate 1653
  MIC: 2 µM (≈ 1.1 µg/mL)
[1]; A. baumannii isolate 1654
  MIC: 2 µM (≈ 1.1 µg/mL)
[1]; purified compound, Table 1
  MIC: 1.63 µM (≈ 0.898 µg/mL)
[2]
  survival of infected mice over 5 day infection period: all mice survived
[3]
  MBC: 3.09 µM (≈ 1.7 µg/mL)
[4]
  MBC: 1.87 µM (≈ 1.03 µg/mL)
[5]
  MBC: 4.01 µM (≈ 2.21 µg/mL)
[6]
  MBC: 2.36 µM (≈ 1.3 µg/mL)
[7]
  MBC: 3.14 µM (≈ 1.73 µg/mL)
[8]
  MBC: 3.05 µM (≈ 1.68 µg/mL)
[9]
  increase in MIC after serial passage: two-fold
[10]
  stacked score activity, 100/MIC, E: 20
[10]; E. faecium isolate 1406
  MIC: 2 µM (≈ 1.1 µg/mL)
[10]; E. faecium isolate 1407
  MIC: 2 µM (≈ 1.1 µg/mL)
[10]; E. faecium isolate 1432
  MIC: 2 µM (≈ 1.1 µg/mL)
[10]; E. faecium isolate 1438
  MIC: 2 µM (≈ 1.1 µg/mL)
[10]; E. faecium isolate 1439
  MIC: 2 µM (≈ 1.1 µg/mL)
[10]; E. faecium isolate 1443
  MIC: 2 µM (≈ 1.1 µg/mL)
[10]; E. faecium isolate 1444
  MIC: 2 µM (≈ 1.1 µg/mL)
[10]; E. faecium isolate 1449
  MIC: 2 µM (≈ 1.1 µg/mL)
[10]; E. faecium isolate 1450
  MIC: 2 µM (≈ 1.1 µg/mL)
[10]; E. faecium isolate 1451
  MIC: 2 µM (≈ 1.1 µg/mL)
[10]; purified compound, Table 1
  MIC: 1.63 µM (≈ 0.898 µg/mL)
[11]; P. aeruginosa isolate 1414
  MIC: 5 µM (≈ 2.75 µg/mL)
[11]; P. aeruginosa isolate 1415
  MIC: 5 µM (≈ 2.75 µg/mL)
[11]; P. aeruginosa isolate 1416
  MIC: 5 µM (≈ 2.75 µg/mL)
[11]; P. aeruginosa isolate 1417
  MIC: 5 µM (≈ 2.75 µg/mL)
[11]; P. aeruginosa isolate 1418
  MIC: 7 µM (≈ 3.86 µg/mL)
[11]; P. aeruginosa isolate 1419
  MIC: 5 µM (≈ 2.75 µg/mL)
[11]; P. aeruginosa isolate 1420
  MIC: 5 µM (≈ 2.75 µg/mL)
[11]; P. aeruginosa isolate 1421
  MIC: 5 µM (≈ 2.75 µg/mL)
[11]; P. aeruginosa isolate 1422
  MIC: 5 µM (≈ 2.75 µg/mL)
[11]; P. aeruginosa isolate 1423
  MIC: 2 µM (≈ 1.1 µg/mL)
[11]; purified compound, Table 1
  MIC: 1.63 µM (≈ 0.898 µg/mL)
[11]
  concentration inhibiting 90% of isolates: 10 µM
[12]
  pathogens against which the compound showed activity at 5 ug/ml: ESKAPE
  pathogens against which the compound showed activity at 10 ug/ml: ESKAPE
  pathogens against which the compound showed activity at 25 ug/ml: ESKAPE

## CCCC[C@H]1CN(CCCC[C@H]2CNC(=N)N2CCc2cccc(C(F)(F)F)c2)C(=N)N1CCCCC1CCCCC1 [Compound 2, (S)-4-butyl-3-(4-cyclohexylbutyl)-1-(4-((S)-2-imino-3-(3-(trifluoromethyl)phenethyl)imidazolidin-4-yl)butyl)imidazolidin-2-imine]
[1]
  stacked score activity, 100/MIC, A: 25
[1]; A. baumannii isolate 1403
  MIC: 2 µM (≈ 1.18 µg/mL)
[1]; A. baumannii isolate 1643
  MIC: 2 µM (≈ 1.18 µg/mL)
[1]; A. baumannii isolate 1644
  MIC: 2 µM (≈ 1.18 µg/mL)
[1]; A. baumannii isolate 1647
  MIC: 2 µM (≈ 1.18 µg/mL)
[1]; A. baumannii isolate 1648
  MIC: 2 µM (≈ 1.18 µg/mL)
[1]; A. baumannii isolate 1649
  MIC: 2 µM (≈ 1.18 µg/mL)
[1]; A. baumannii isolate 1650
  MIC: 2 µM (≈ 1.18 µg/mL)
[1]; A. baumannii isolate 1651
  MIC: 2 µM (≈ 1.18 µg/mL)
[1]; A. baumannii isolate 1653
  MIC: 2 µM (≈ 1.18 µg/mL)
[1]; A. baumannii isolate 1654
  MIC: 2 µM (≈ 1.18 µg/mL)
[1]; purified compound, Table 1
  MIC: 1.52 µM (≈ 0.898 µg/mL)
[2]
  survival of infected mice over 5 day infection period: only a single mouse succumbing to infection after the first day
[3]
  MBC: 2.03 µM (≈ 1.2 µg/mL)
[4]
  MBC: 1.66 µM (≈ 0.981 µg/mL)
[5]
  MBC: 2.32 µM (≈ 1.37 µg/mL)
[6]
  MBC: 3.98 µM (≈ 2.35 µg/mL)
[7]
  MBC: 4.15 µM (≈ 2.45 µg/mL)
[8]
  MBC: 2.83 µM (≈ 1.67 µg/mL)
[9]
  increase in MIC after serial passage: two-fold
[10]
  stacked score activity, 100/MIC, E: 50
[10]; E. faecium isolate 1406
  MIC: 2 µM (≈ 1.18 µg/mL)
[10]; E. faecium isolate 1407
  MIC: 2 µM (≈ 1.18 µg/mL)
[10]; E. faecium isolate 1432
  MIC: 2 µM (≈ 1.18 µg/mL)
[10]; E. faecium isolate 1438
  MIC: 2 µM (≈ 1.18 µg/mL)
[10]; E. faecium isolate 1439
  MIC: 2 µM (≈ 1.18 µg/mL)
[10]; E. faecium isolate 1443
  MIC: 2 µM (≈ 1.18 µg/mL)
[10]; E. faecium isolate 1444
  MIC: 2 µM (≈ 1.18 µg/mL)
[10]; E. faecium isolate 1449
  MIC: 2 µM (≈ 1.18 µg/mL)
[10]; E. faecium isolate 1450
  MIC: 2 µM (≈ 1.18 µg/mL)
[10]; E. faecium isolate 1451
  MIC: 2 µM (≈ 1.18 µg/mL)
[10]; purified compound, Table 1
  MIC: 1.52 µM (≈ 0.898 µg/mL)
[11]; P. aeruginosa isolate 1414
  MIC: 3 µM (≈ 1.77 µg/mL)
[11]; P. aeruginosa isolate 1415
  MIC: 3 µM (≈ 1.77 µg/mL)
[11]; P. aeruginosa isolate 1416
  MIC: 2 µM (≈ 1.18 µg/mL)
[11]; P. aeruginosa isolate 1417
  MIC: 3 µM (≈ 1.77 µg/mL)
[11]; P. aeruginosa isolate 1418
  MIC: 7 µM (≈ 4.14 µg/mL)
[11]; P. aeruginosa isolate 1419
  MIC: 3 µM (≈ 1.77 µg/mL)
[11]; P. aeruginosa isolate 1420
  MIC: 3 µM (≈ 1.77 µg/mL)
[11]; P. aeruginosa isolate 1421
  MIC: 3 µM (≈ 1.77 µg/mL)
[11]; P. aeruginosa isolate 1422
  MIC: 3 µM (≈ 1.77 µg/mL)
[11]; P. aeruginosa isolate 1423
  MIC: 2 µM (≈ 1.18 µg/mL)
[11]; purified compound, Table 1
  MIC: 1.52 µM (≈ 0.898 µg/mL)
[11]
  concentration inhibiting 90% of isolates: 5 µM
[12]; dose 4 ug/ml
  pathogens against which the compound showed activity at 4 ug/ml: ESAP
[12]
  pathogens against which the compound showed activity at 5 ug/ml: ESKAPE
  pathogens against which the compound showed activity at 10 ug/ml: ESKAPE
  pathogens against which the compound showed activity at 25 ug/ml: ESKAPE

From patent US20170065564A1, “BIS-CYCLIC GUANIDINE COMPOUND COMPOSITIONS, METHODS OF USE AND TREATMENT THEREOF” (University of South Florida, priority 2014, published 2017)
